In patent US20170015555A1, “LONG-TERM PRESERVATION AND NOVEL APPLICATION OF CHLOROUS ACID AQUEOUS SOLUTION FORMULATION” (priority 2013, published 2017):

Tested on: Microbes of the genus Salmonella: Salmonella Enteritidis IF03313
Format: cell-based
Details: stored at 25° C. Day 7; 1000 ppm available chlorine
Excerpt: 1) Chlorous acid aqueous solution formulation (see Example 1: Table 11) Treatment sheet (material: 100% cotton): (about 27×40 cm) *Impregnated at a ratio of weight of treatment sheet (g): amount of liquid (ml)=1:3 2) Imitation vomit Miso solution: adjusted to pH of 2 with hydrochloric acid 3) Test Microbes that were Used E. coli: Escherichia coli IF03927 Staphylococcus aureus: Staphylococcus aureus IF0 12732 Thermoduric Microbes (Bacillus cereus): Bacillus cereus NBRC15305 Microbes of the genus Salmonella: Salmonella Enteritidis IF03313 Enterohemorrhagic Escherichia coli O157: Escherichia coli O157 Enterohemorrhagic Escherichia coli O111: Escherichia coli O111 Enterohemorrhagic Escherichia coli O26: Escherichia coli O26
(1) Imitation vomit was spread in an area about the size of an A4 sheet. (2) 5 dry sheets were laid thereon. (3) An agent solution was poured on the dry sheets to wipe off the imitation vomit. (4) A cotton swab was soaked with sterile saline. A portion where imitation vomit was spread was scrubbed with the cotton swab to collect microbes remaining on the floor. After suspending in saline, the solution was spread on a petri dish and cultured. The number of each of the microbes was measured. (5) Test operations 3 and 4 were repeated a total of 7 times (repeated until the imitation vomit could be removed completely).

[Na] [Sodium]
<10: Number of Times Wiped 1 Time (remaining microbes) | Number of Times Wiped 2 Times (remaining microbes) | Number of Times Wiped 3 Times (remaining microbes)
